Data on four compounds can be found in PubChem BioAssay AID1963967 (Molecular Pharmacology Branch, DTP, NCI, 2024).

This assay concerns 855422-203-R-J1-PDC spheroids with HUVEC/MSC, viability. Kind of assay: Anticancer human tumor 855422-203-R-J1-PDC patient-derived bladder carcinoma cell line growth inhibition [PI3K]. To be noted: for viability, T/C: stronger effect = lower value. The source says:
Combinatorial screen of targeted agents with the PI3K inhibitors inavolisib, alpelisib, duvelisib, and copanlisib in multi-cell type tumor spheroids
A high-throughput screen of multi-cell type tumor spheroids was designed to identify active combinations of targeted small molecules and PI3K pathway inhibitors. Complex spheroids include a stromal component modeled by human endothelial cells (HUVEC) and fibroblasts modeled by human mesenchymal stem cells (MSCs). The concentration ranges selected for each drug and investigational agent were based upon clinically achievable concentrations if the clinical Cmax of the agent was known.
Compounds. The drugs and investigational agents: inavolisib (NSC800729), alpelisib (NSC765974), duvelisib (NSC772469), copanlisib (NSC816437), ipatasertib (NSC767898), afuresertib (NSC778305), talazoparib (NSC767125), sapanisertib (NSC764658), selumetinib (NSC741078), tovorafenib (DAY101, NSC766906), vemurafenib (NSC761431), ravoxertinib (NSC781343), sotorasib (NSC818433), MRTX1133 (NSC 836407), abemaciclib (NSC 768073), palbociclib (NSC758247), venetoclax (NSC 766270), SY5609 (NSC837396), enzalutamide (NSC755605), and darolutamide (NSC825331), were obtained from the National Cancer Institute (NCI) Developmental Therapeutics Program Chemical Repository. The FDA-approved anticancer drug set is available from the NCI Developmental Therapeutics Program. […] The stock solutions were prepared in dimethyl sulfoxide (DMSO, Sigma-Aldrich, St. Louis, MO, cat. D2650) at 800-fold the tested concentration and stored at -70 degrees C prior to their use. All drugs and investigational agents were tested over a range starting from a high concentration at or near the clinical Cmax and decreasing in half-log increments. If the clinical Cmax for an agent had not been determined, the highest concentration tested was 10 microM.
Cell Culture. All cells were maintained in an incubator at 37 degrees C and 5% CO2 with 95% humidity. The PDC lines were cultured according to standard operating procedures established by the NCI PDMR (https://pdmr.cancer.gov/sops/default.htm). All PDCs were thawed and cultured in Matrigel-coated flasks prepared with a working solution of 1X Ham's F-12 nutrient mix, without supplementation (Invitrogen, Waltham, MA, cat. 11765054), 100 U/mL penicillin-streptomycin (Invitrogen, cat. 15140122), and 2.5% Matrigel (Corning Inc., Corning, NY, cat. 354248) for the first three passages. The 354836-022-R-J1-PDC, 475296-252-R-J1-PDC, and 997726-040-R-J2-PDC lines were cultured in 6A media, which includes advanced DMEM/F-12 (Thermo Fisher Scientific, cat. 12634028), 10 mM HEPES (Thermo Fisher Scientific, cat. 15630080), 1X GlutaMAX supplement (Thermo Fisher Scientific, cat. 35050061), 0.1 mg/mL primocin (InvivoGen, San Diego, CA, cat. ant-pm-2), 10% defined fetal bovine serum, heat inactivated (HyClone Laboratories Inc., Logan, UT, cat. SH30070.03HI), 50% L-WRN conditioned media (ATCC, cat. CRL-3276), 1.25 mM N-Acetyl-L-cysteine (Sigma-Aldrich, cat. A9165), 10 mM nicotinamide (Sigma-Aldrich, cat. N0636), 1X B-27 supplement (Thermo Fisher Scientific, cat. 17504044), 1X N-2 supplement (Thermo Fisher Scientific, cat. 17502048), and 10 microM Y-27632 dihydrochloride (Tocris Bioscience, Bristol, United Kingdom, cat. 1254). The 624824-186-R-J2-PDC line was cultured in 6C/Colon 1B media, which includes all 6A media components plus 50 ng/mL human EGF recombinant protein (Thermo Fisher Scientific, cat. PHG0311). […]

The mark [1] stands for this setting: curve of first compound, second compound 0.0316 µM.
[2] abbreviates: curve of first compound, second compound 0.1 µM.
Setting [3] is: curve of first compound, second compound 0.316 µM.
[4] abbreviates: curve of first compound, second compound 1 µM.
Setting [5] is: second compound 0.0316 µM, first compound 0.0316 µM.
[6] abbreviates: second compound 0.0316 µM, first compound 0.1 µM.
Setting [7] is: second compound 0.0316 µM, first compound 0.316 µM.
Where [8] appears, read: second compound 0.0316 µM, first compound 1 µM.
Setting [9] is: second compound 0.0316 µM, first compound 3.16 µM.
Where [10] appears, read: second compound 0.0316 µM, first compound 10 µM.
The mark [11] stands for this setting: second compound 0.1 µM, first compound 0.0316 µM.
Setting [12] is: second compound 0.1 µM, first compound 0.1 µM.
The mark [13] stands for this setting: second compound 0.1 µM, first compound 0.316 µM.
Setting [14] is: second compound 0.1 µM, first compound 1 µM.
Where [15] appears, read: second compound 0.1 µM, first compound 3.16 µM.
Where [16] appears, read: second compound 0.1 µM, first compound 10 µM.
Setting [17] is: second compound 0.316 µM, first compound 0.0316 µM.
[18] abbreviates: second compound 0.316 µM, first compound 0.1 µM.
Where [19] appears, read: second compound 0.316 µM, first compound 0.316 µM.
[20] abbreviates: second compound 0.316 µM, first compound 1 µM.
Where [21] appears, read: second compound 0.316 µM, first compound 3.16 µM.
Setting [22] is: second compound 0.316 µM, first compound 10 µM.
The mark [23] stands for this setting: second compound 1 µM, first compound 0.0316 µM.
Setting [24] is: second compound 1 µM, first compound 0.1 µM.
Where [25] appears, read: second compound 1 µM, first compound 0.316 µM.
Where [26] appears, read: second compound 1 µM, first compound 1 µM.
Where [27] appears, read: second compound 1 µM, first compound 3.16 µM.
Setting [28] is: second compound 1 µM, first compound 10 µM.

SMILES strings stand for the structures.
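Note: agents incubated with spheroids for one week before read-out.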
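Throughout, for viability, T/C: 100% = DMSO vehicle-treated control wells.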

By viability, T/C is commonly meant the ratio of treated to control. By IC50 is commonly meant the concentration needed to halve the response being measured. Take `Cn1cnc2c(F)c(Nc3ccc(Br)cc3Cl)c(C(=O)NOCCO)cc21`: the viability, T/C is 100% [middle of 4 runs] (compound 0.00949 µM); 94.8% [middle of 4 runs] (compound 0.03 µM); 101% [middle of 4 runs] (compound 0.0949 µM); 88% [middle of 4 runs] (compound 0.3 µM); 87.5% [middle of 4 runs] (compound 0.949 µM); 47% [middle of 4 runs] (compound 3 µM). Besides, the IC50 (curve of compound) is 2.81 µM [middle of 4 runs].
For `CNC(=O)c1ccc(N2C(=S)N(c3ccc(C#N)c(C(F)(F)F)c3)C(=O)C2(C)C)cc1F` + CC(Nc1ncnc2nc[nH]c12)c1cc2cccc(Cl)c2c(=O)n1-c1ccccc1, the IC50 under setting [1] was greater than 10 µM; the 50% inhibitory concentration (IC50) under setting [2] was greater than 10 µM; the IC50 under setting [3] was greater than 10 µM; the IC50 under setting [4] is greater than 10 µM; the IC50 (curve of first compound, second compound 3.16 µM) was greater than 10 µM; the IC50 (curve of first compound, second compound 10 µM) was greater than 10 µM. The viability, T/C is, setting by setting: under setting [5], 111%; under setting [6], 93%; under setting [7], 109%; under setting [8], 89.1%; under setting [9], 86.2%; under setting [10], 75.4%. Also, the viability, T/C by setting is: under setting [11], 117%; under setting [12], 91.1%; under setting [13], 104%; under setting [14], 86.6%; under setting [15], 74.3%; under setting [16], 68.5%. In addition, the viability, T/C is, setting by setting: under setting [17], 96.9%; under setting [18], 105%; under setting [19], 102%; under setting [20], 80.2%; under setting [21], 76.5%; under setting [22], 63.1%. In addition, the viability, T/C under setting [23] was 97.4%; the viability, T/C under setting [24] is 102%; the viability, T/C under setting [25] is 106%; the viability, T/C under setting [26] is 91.4%; the viability, T/C under setting [27] was 73%; the viability, T/C under setting [28] is 69.1%. In addition, the viability, T/C reads like this: (second compound 3.16 µM, first compound 0.0316 µM) 100%; (second compound 3.16 µM, first compound 0.1 µM) 100%; (second compound 3.16 µM, first compound 0.316 µM) 100%; (second compound 3.16 µM, first compound 1 µM) 84.3%; (second compound 3.16 µM, first compound 3.16 µM) 76%; (second compound 3.16 µM, first compound 10 µM) 77.7%. Also, the viability, T/C is, setting by setting: (second compound 10 µM, first compound 0.0316 µM) 89%; (second compound 10 µM, first compound 0.1 µM) 80.9%; (second compound 10 µM, first compound 0.316 µM) 95.8%; (second compound 10 µM, first compound 1 µM) 81%; (second compound 10 µM, first compound 3.16 µM) 77.4%; (second compound 10 µM, first compound 10 µM) 68.4%.
Take `C#Cc1c(F)ccc2cc(O)cc(-c3ncc4c(N5CC6CCC(C5)N6)nc(OCC56CCCN5CC(F)C6)nc4c3F)c12` (stereo unspecified) + COc1c(OCCCN2CCOCC2)ccc2c3n(c(=NC(=O)c4cnc(N)nc4)nc12)CCN3: the IC50 is greater than 10 µM (curve of first compound, second compound 0.00316 µM); greater than 10 µM (curve of first compound, second compound 0.01 µM); greater than 10 µM under setting [1]; less than 0.0316 µM under setting [2]; less than 0.0316 µM under setting [3]; less than 0.0316 µM under setting [4]. The viability, T/C (second compound 0.00316 µM, first compound 0.0316 µM) is 103%; the viability, T/C (second compound 0.00316 µM, first compound 0.1 µM) is 86.9%; the viability, T/C (second compound 0.00316 µM, first compound 0.316 µM) is 105%; the viability, T/C (second compound 0.00316 µM, first compound 1 µM) is 101%; the viability, T/C (second compound 0.00316 µM, first compound 3.16 µM) was 103%; the viability, T/C (second compound 0.00316 µM, first compound 10 µM) was 107%. Also, the viability, T/C was 97.7% (second compound 0.01 µM, first compound 0.0316 µM); 90.9% (second compound 0.01 µM, first compound 0.1 µM); 83.3% (second compound 0.01 µM, first compound 0.316 µM); 91% (second compound 0.01 µM, first compound 1 µM); 92.8% (second compound 0.01 µM, first compound 3.16 µM); 105% (second compound 0.01 µM, first compound 10 µM). In addition, the viability, T/C was 57.6% under setting [5]; 65.4% under setting [6]; 62.7% under setting [7]; 60% under setting [8]; 59.5% under setting [9]; 50.4% under setting [10]. Also, the viability, T/C reads like this: under setting [11], 25.9%; under setting [12], 26.7%; under setting [13], 26.5%; under setting [14], 24.8%; under setting [15], 23.8%; under setting [16], 20.4%. Besides, the viability, T/C is, setting by setting: under setting [17], 10.8%; under setting [18], 8.21%; under setting [19], 9.76%; under setting [20], 7.21%; under setting [21], 6.7%; under setting [22], 3.41%. Besides, the viability, T/C by setting is: under setting [23], 3.53%; under setting [24], 3.24%; under setting [25], 3.78%; under setting [26], 2.64%; under setting [27], 2.16%; under setting [28], 0.32%.
On to `Cc1nc(NC(=O)N2CCCC2C(N)=O)sc1-c1ccnc(C(C)(C)C(F)(F)F)c1` (stereo unspecified), for which the viability, T/C is, setting by setting: (compound 0.0316 µM) 107% [middle of 8 runs]; (compound 1 µM) 75.8% [middle of 8 runs]; (compound 3.16 µM) 43% [middle of 8 runs]; (compound 10 µM) 22.2% [middle of 8 runs]. The IC50 (compound alone, run of 05/08/2023) was 2.53 µM [middle of 8 runs].
